Measured values published in patent US9757408B2 (Hayashibara Co., Ltd., priority 2010, dated 2017).
Marks after values point to notes of the source that are not given here.

Legend:
[1] = test system: IL-6 production from mouse intraperitoneal macrophages; experiment: IC50 for IL-6 production from mouse macrophages, LPS + IFN-γ (Experiment 19); format: cell-based; conditions: for IC50: Mus musculus, Macrophage, 20 h, read-out: IC50 Concentration IL-6
Text: After completion of the culture, the supernatant in each well was collected and assayed for cytokines and prostaglandin E2 (called “PGE2”, hereinafter) with ELISA.

[2] = test system: TNF-α production from NHEK cells; experiment: TNF-α production from NHEK cells irradiated with ultraviolet B (Experiment 17); format: cell-based, human; conditions: for TNF-α: NHEK cells, stimulation by ultraviolet rays; for production of TNF-α from NHEK cells induced by ultraviolet rays: UVB 40 mJ/cm^2, supernatant at six hours
Method: (§1) “CELLMATRIX TYPE IV”, a product name of collagen for tissue culture commercialized by Nitta Gelatin Inc., Osaka, Japan, which had been diluted with PBS(K-) by 10 times, was previously placed in “FALCON 35-3001”, a product name of 35 mm petri dish commercialized by Becton Dickinson and Company, NJ, USA, in an amount of 1 mL/plate, and then allowed to stand at ambient temperature for 10 min, followed by removing an excessive amount of CELLMATRIX, drying the petri dish in air, and washing it thrice with PBS(K-). […] The cells were cultured at 37° C. in a 5% v/v CO2 incubator. On the 2nd and 4th days after the cell inoculation, the medium was replaced with EpiLife medium free of EDGS (1 mL/plate). On the 5th day after the cell inoculation, the supernatant was removed, and the petri dish was washed twice by adding 1 mL/petri dish of Hanks' balanced salt solution (called “HBSS (−) buffer”, hereinafter). Further, 2 mL/petri dish of HBSS (−) buffer was added to the petri dish which was then placed in the position 15 cm apart from an ultraviolet ray light source and irradiated with 40 mJ/cm^2 of ultraviolet B radiation. […] As an ultraviolet ray light source, “NS-8F”, a light source for actual use commercialized by Sanwa Medical Co., Ltd., Okayama, Japan, equipped with an ultraviolet B radiation lamp was used, and the radiation dose was measured on “UVR-305/365D (II)”, an ultraviolet ray meter commercialized by Topcon Corporation, Tokyo, Japan. TNF-α was assayed by the same method as in Experiment 2. The remaining other cytokines were assayed with an IL-1α assay kit, commercialized by R & D Systems Inc., MN, USA, and an IL-8 assay kit commercialized by BioLegend, CA, USA.

[3] = test system: IL-5 production of spleen cells; experiment: IL-5 production of spleen cells stimulated with anti-CD3 antibody, from gel-treated mice (Experiment 16); format: in vivo, NC/Nga mice; conditions: for production level of IL-5 of spleen cells stimulated with the anti-CD3 antibody: compared to mice applied with gel prepared by adding refined water (Experiment group 1); for Content of IL-5: supernatant of spleen cells stimulated with anti-CD3 antibody, picryl chloride-sensitized mice applied with gel
Method: On Friday of the 6th week of the induction (46th day after initiating the application), all the mice were sacrificed, followed by isolating their spleens and collecting spleen cells in usual manner. […] To each well 2 μg/mL of “Purified Mouse CD3ε Monoclonal Antibody”, a product name of an anti-CD3 antibody, commercialized by Cosmo Bio Co., Ltd., Tokyo, Japan, was added, and the cells were incubated at 37° C. for three days in a 5% v/v CO2 incubator, followed by assaying the levels of cytokines in each supernatant thereof.
The results are in Table 19 in parallel.

[4] = test system: IL-8 production from NHEK cells; experiment: IL-8 production from NHEK cells irradiated with ultraviolet B (Experiment 17); format: cell-based, human; conditions: for IL-8: NHEK cells, stimulation by ultraviolet rays; for production of IL-8 from NHEK cells induced by ultraviolet rays: UVB 40 mJ/cm^2, supernatant at six hours
Method: as §1

KK-Ay mice = KK-Ay mice kidney inflammation: body weight, kidney ratio, blood glucose, HbA1c, renal glomerulus consolidation (Experiment 14); format: in vivo; conditions: 10 weeks; for Percentage of subject with renal glomerulus solidification (++): (++) = at least 50% consolidation; for Blood glucose level: fasted 16 hours
Text: Fifty KK-Ay mice, 5-week-old, male, commercialized by Japan Crea Co., Tokyo, Japan, were preliminary bred for one week on CE-2 feed commercialized by Japan Crea Co., Tokyo, Japan, measured for body weight and blood glucose level in blood samples collected from their tail veins, and randomly grouped into five groups, ten heads each, after balancing each measured value. One of the five groups was made into a control group and the mice of the group were allowed to take water freely and bred for 10 weeks (Experiment group 1). […] Throughout the periods of preliminary breeding and testing, the mice were bred while freely allowing them to take CE-2 feed at 22±2° C. under a light-dark cycle of 12 hours (lighting: from 7:00 to 19:00). At the termination of the test, the mice were evaluated based on their body weight, weight ratio of kidney, blood glucose level, hemoglobin A1c (HbA1c), and pathological findings of renal disorder by autopsy, and the percentage of mice with at least 50% consolidation (++) of renal glomerulus against the total glomus is shown in Table 15. The weight ratio of kidney was determined by dividing the weight of kidney by the body weight. The blood glucose level, HbA1c, and denatured score of renal glomerulus were determined by the following method.
At the termination of the test, the mice were fasted for 16 hours prior to autopsy and collected blood from their postcava for measurement of fasting glucose level. The blood glucose level was determined by “GLUCOSE CII-TEST WAKO”, a product name of a commercialized reagent for blood glucose level commercialized by Wako Pure Chemical Industries Ltd., Tokyo, Japan.
At the termination of the test, the mice were fasted for 16 hours before autopsy and collected blood from their postcava for measurement of interdigestive HbA1c level. The measurement was asked FALCO biosystems Ltd., Kyoto, Japan, a privately-owned clinical inspection institute.
At the autopsy, each mouse was collected his kidney which was then fixed with neutral buffered formalin, prepared into a pathologic tissue section in usual manner, and stained with hematoxylin-eosin staining (H-E staining) and PAS staining. For the stained pathologic tissue section of each mouse, they were compared with that of the control and the pathological findings by microscopic observation were judged based on the following criteria and scored for an index of the denaturation of renal disorder.
The degree of renal disorder was judged based on the degree of consolidation of renal glomerulus: The degree was judged based on the four grades; (++), meaning that at least 50% consolidation of renal glomerulus is observed against the total glomus; (+), meaning that at least 25% but below 50% consolidation of renal glomerulus is observed against the total glomus; (±), meaning that less than 25% consolidation of renal glomerulus is observed against the total glomus; and (−), meaning that no consolidation of renal glomerulus is observed against the total glomus. The pathological findings of kidney was judged based on an evaluation criterion for pathologic tissue (see, for example, the lines 12 to 21 at page 862 of “American Journal of Pathology”, Vol. 160, No. 3, pp. 861-867, 2002, by Andrea Hartner et al.).

## Nc1ncnc2c1ncn2[C@@H]1O[C@H](CO)[C@@H](O)[C@H]1O [AN, adenosine]
[1]
  IC50: 50.1 µM
[2]; 1 μM
  TNF-α: 144 pg/mL
[2]; 5 μM
  TNF-α: 138 pg/mL
[2]; 10 μM
  TNF-α: 138 pg/mL
[2]
  production of TNF-α from NHEK cells induced by ultraviolet rays: did not influence
[3]
  production level of IL-5 of spleen cells stimulated with the anti-CD3 antibody: showed no difference
  Content of IL-5: 225 ng/mL
[4]; 1 μM
  IL-8: 177 pg/mL
[4]; 5 μM
  IL-8: 172 pg/mL
[4]; 10 μM
  IL-8: 175 pg/mL
[4]
  production of IL-8 from NHEK cells induced by ultraviolet rays: did not influence
KK-Ay mice; 94 mg/kg body weight/day
  HbA1c value: 6.72%
  Percentage of subject with renal glomerulus solidification (++): 100%
  Blood glucose level: 342 mg/dL

## Nc1c2ncn([C@@H]3O[C@H](CO)[C@@H](O)[C@H]3O)c2nc[n+]1[O-] [ANO, adenosine N1-oxide]
[1]
  IC50: 0.9 µM
[1]; mouse intraperitoneal macrophages stimulated with LPS and IFN-γ
  inhibition of the production of IL-6 (in words): strongly inhibited
[2]; 1 μM
  TNF-α: 119 pg/mL
[2]; 5 μM
  TNF-α: 76 pg/mL
[2]; 10 μM
  TNF-α: 76 pg/mL
[2]
  production of TNF-α from NHEK cells induced by ultraviolet rays: inhibited
[3]
  production level of IL-5 of spleen cells stimulated with the anti-CD3 antibody: tended to decrease
  Content of IL-5: 157 ng/mL
[4]; 1 μM
  IL-8: 107 pg/mL
[4]; 5 μM
  IL-8: 89 pg/mL
[4]; 10 μM
  IL-8: 51 pg/mL
[4]
  production of IL-8 from NHEK cells induced by ultraviolet rays: inhibited
KK-Ay mice; 30 mg/kg body weight/day
  HbA1c value: 6.79%
  Percentage of subject with renal glomerulus solidification (++): 50%
  Blood glucose level: 304 mg/dL
KK-Ay mice; 100 mg/kg body weight/day, 100 mg/kg/day
  HbA1c value: 5.40* %
KK-Ay mice; 100 mg/kg body weight/day
  Percentage of subject with renal glomerulus solidification (++): 30%
  Blood glucose level: 305 mg/dL
KK-Ay mice; 100 mg/kg body weight/day, listed as adenosine N1-oxide, 100 mg/kg/day
  HbA1c value: 5.40%

## OC[C@H]1O[C@@H](n2cnc3c(O)ncnc32)[C@H](O)[C@@H]1O [IN, inosine]
[1]; mouse macrophages, LPS and IFN-γ, 20 hours
  IC50 Concentration IL-6: Enhanced
[2]; 1 μM
  TNF-α: 141 pg/mL
[2]; 5 μM
  TNF-α: 142 pg/mL
[2]; 10 μM
  TNF-α: 128 pg/mL
[2]
  production of TNF-α from NHEK cells induced by ultraviolet rays: did not influence
[3]
  production level of IL-5 of spleen cells stimulated with the anti-CD3 antibody: showed no difference
  Content of IL-5: 209 ng/mL
[4]; 1 μM
  IL-8: 166 pg/mL
[4]; 5 μM
  IL-8: 169 pg/mL
[4]; 10 μM
  IL-8: 140 pg/mL
[4]
  production of IL-8 from NHEK cells induced by ultraviolet rays: did not influence
KK-Ay mice; 94 mg/kg body weight/day
  HbA1c value: 6.55%
  Percentage of subject with renal glomerulus solidification (++): 80%
  Blood glucose level: 340 mg/dL
